Laboratory results as given in patent US20250304623A1, “PEPTIDES FOR INTRACELLULAR DELIVERY” (UNIVERSIDADE DE SANTIAGO DE COMPOSTELA, priority 2022, published 2025).
Starred links: 1 amine or outer side, 2 acyl side, 3 side chain; linkers in the order of their positions; H or OH if unused. Residues, ends and D or L forms follow the SMILES beside them. Groups on a side chain read outwards from the residue. *: point of attachment. Glutaryl = O=C(CCCC(=O)[*:2])[*:1]; NHNH2 = NN*

Columns and labels:
Assay type in all cases: cell-based
A549 cells = test: EGFP mRNA delivery, robotic library screening, A549
Description: Cells were seeded in a 96 well plate the day before the experiment at a concentration of 50,000 cell/mL (100 μL/w) in DMEM+10% FBS+1% Gln-Abt. For robotic library screening, the delivery of EGFP-mRNA (from TriLink, fully substituted with 5-methoxyuridine, capped and polyadenylated; TriLink, CleanCap® EGFP mRNA (5moU), ref. L-7201) in six different cell lines was performed. Amphiphilic molecule stock solutions were prepared in DMSO as described above and diluted in DMEM to afford a range of concentrations. The solutions of EGFP-mRNA/amphiphilic molecule complexes were freshly prepared prior to the transfection experiments. 35 μL of the corresponding amphiphile were added to 10 μL of a solution of EGFP-mRNA at 10 ng/μL in DMEM. The mixture was shaken for 30 min at room temperature before the addition to the cells. The cell medium was aspirated, and cells were washed with PBS twice. Cells were covered with 39 μL of DMEM and 11 μL of the complex's solution were added to the cells and incubated for 4 h (final concentration of peptide=2.5, 5 and 10 μM; final concentration of EGFP-mRNA=25 ng/well). After the incubation, the medium was replaced by 100 μL of fresh DMEM supplemented with 10% FBS. The total EGFP fluorescence was quantified after 72 h in a well plate reader. Amphiphile transfection efficiency was compared and normalized to Lipofectamine® MessengerMax efficiency (value of 1 in Tables 1-5 and 7; double underlined numbers). All experiments were done in triplicate.
(§1) Tables 1-7: RLuc (pDNA) or EGFP (mRNA) expression levels were normalized to Lipofectamine reagents (value=1) and expressed as fold-times signal increase. In the case of siRNA, the siRNA treated cells fluorescence was compared with siMOCK control fluorescence, while Cas9-RNP mediated knockout was measured against the fluorescence of untreated cells. In both siRNA and Cas9-RNP, values are expressed as % fluorescence reduction. Amphiphile concentration was 5 μM in all cases. All experiments were performed in triplicate.
Tables 14-19 show the mean (triplicates) fluorescence intensity measured after the transfection of EGFP mRNA by different amphiphiles at different concentrations in a variety of cell lines. Background fluorescence values, accounted by untreated control cells, were subtracted for processing.

[1] = test system: Hela cells expressing EGFP; test: Cas9-RNP delivery against EGFP (gene editing, plate reader), HeLa
Description: To generate an EGFP expressing HeLa cell line, HeLa cells were transfected with EGFP pDNA (pEGFP-C1, Clontech) and stable transfectants were selected with 400 μg/mL of G-418 (Millipore). Green clones were selected by epifluorescence microscopy and tested for EGFP expression stability through several passages. […] All other EGFP-expressing cell lines were obtained in a similar way from parent non-EGFP-expressing cell lines.
Cells expressing EGFP were seeded in a 96 well plate the day before the experiment at a concentration of 50,000 cell/mL (100 μL/w) in DMEM+10% FBS+1% Gln-Abt. For robotic library screening, the delivery of Cas9-RNP against EGFP (RNP designed to knock-out the gene encoding for the enhanced green fluorescent protein (EGFP)) was performed. For RNP assembly, 9.2 μL of crRNA and 9.2 μL of tracrRNA were mixed in 211.6 μL of Nuclease-Free Duplex Buffer (IDT), incubated for 5 min at 95° C. and slowly cooled at rt (see I. Lostalé-Seijo, et al. Peptide/Cas9 nanostructures for ribonucleoprotein cell membrane transport and gene edition, Chem. Sci., 2017). Cas9 protein was dissolved in DMEM at a final concentration of 4 μM and equal volumes of the RNA complex and Cas9 were mixed and incubated for 5 min at rt. 75 μL of the corresponding amphiphile concentrations were added to 5 μL of RNP at 2 μM. The mixture was shaken for 30 min at room temperature before the addition to the cells. The cell medium was aspirated, and cells were washed twice with PBS. Cells were covered with 30 μL of DMEM and 20 μL of the RNP/amphiphile complexes were added to the cells (final peptide concentrations=2.5, 5 and 10 μM; final Cas9-RNP concentration=50 nM) and incubated for 4 h. After the incubation, the medium was replaced by 100 μL of fresh DMEM supplemented with 10% FBS. The total EGFP fluorescence was quantified after 72 h in a plate reader (FIG. 2, Table 1 (right) and Table 6). All experiments were done in triplicate.
as §1
Tables 26-31 show the mean (triplicates) percentage of gene editing, accounted by GFP fluorescence intensity decrease (% of reduction), measured after the transfection of Cas9-RNP by different amphiphiles at different concentrations in a variety of cell lines. Background values, accounted by untreated control cells, were subtracted for processing.

Hek293 cells = test: RLuc pDNA delivery, robotic library screening, Hek293

CC(=O)N[C@@H](CCCNC(=N)N)C(=O)N[C@@H](CCCCNC(=O)CCCC(=O)NN)C(=O)N[C@@H](Cc1c[nH]cn1)C(=O)N[C@@H](CCCNC(=N)N)C(=O)N[C@@H](CCCCNC(=O)CCCC(=O)NN)C(=O)N[C@@H](CCCCNC(=O)CCCC(=O)NN)C(=O)N[C@@H](Cc1c[nH]cn1)C(N)=O [7.3(L-H), Ac-RK*HRK*K*H-NH2] (Ac-RK([Glutaryl-NHNH2])HRK([Glutaryl-NHNH2])K([Glutaryl-NHNH2])H-NH2)
mean fluorescence intensity (EGFP mRNA) (A549 cells; Dodecanal, 2.5 μM): 570
mean fluorescence intensity (EGFP mRNA) (A549 cells; Dodecanal, 5 μM): 375
mean fluorescence intensity (EGFP mRNA) (A549 cells; Dodecanal, 10 μM): 587
mean fluorescence intensity (EGFP mRNA) (A549 cells; Myristoleyl, 2.5 μM): 19549
mean fluorescence intensity (EGFP mRNA) (A549 cells; Myristoleyl, 5 μM): 6729
mean fluorescence intensity (EGFP mRNA) (A549 cells; Myristoleyl, 10 μM): 2718
mean fluorescence intensity (EGFP mRNA) (A549 cells; Oleyl, 2.5 μM): 12392
mean fluorescence intensity (EGFP mRNA) (A549 cells; Oleyl, 5 μM): 4708
mean fluorescence intensity (EGFP mRNA) (A549 cells; Oleyl, 10 μM): 1954
mean fluorescence intensity (EGFP mRNA) (A549 cells; Palmitoleyl, 2.5 μM): 52764
mean fluorescence intensity (EGFP mRNA) (A549 cells; Palmitoleyl, 5 μM): 19296
mean fluorescence intensity (EGFP mRNA) (A549 cells; Palmitoleyl, 10 μM): 3995
mean fluorescence intensity (EGFP mRNA) (A549 cells; Petroselinyl, 2.5 μM): 9125
mean fluorescence intensity (EGFP mRNA) (A549 cells; Petroselinyl, 5 μM): 2712
mean fluorescence intensity (EGFP mRNA) (A549 cells; Petroselinyl, 10 μM): −119
mRNA delivery relative to Lipofectamine MessengerMAX (A549 cells; palmitoleyl aldehyde): two times better
percentage of gene editing, GFP fluorescence intensity decrease (% of reduction) ([1]; Dodecanal, 10 μM, HeLa cells): −8%
percentage of gene editing, GFP fluorescence intensity decrease (% of reduction) ([1]; Dodecanal, 15 μM, Hela cells): −21%
percentage of gene editing, GFP fluorescence intensity decrease (% of reduction) ([1]; Myristoleyl, 5 μM, HeLa cells): 39%
percentage of gene editing, GFP fluorescence intensity decrease (% of reduction) ([1]; Myristoleyl, 10 μM, HeLa cells): 22%
percentage of gene editing, GFP fluorescence intensity decrease (% of reduction) ([1]; Myristoleyl, 15 μM, Hela cells): 18%
percentage of gene editing, GFP fluorescence intensity decrease (% of reduction) ([1]; Oleyl, 5 μM, HeLa cells): 16%
percentage of gene editing, GFP fluorescence intensity decrease (% of reduction) ([1]; Oleyl, 10 μM, HeLa cells): 13%
percentage of gene editing, GFP fluorescence intensity decrease (% of reduction) ([1]; Oleyl, 15 μM, Hela cells): 22%
percentage of gene editing, GFP fluorescence intensity decrease (% of reduction) ([1]; Palmitoleyl, 5 μM, HeLa cells): 55%
percentage of gene editing, GFP fluorescence intensity decrease (% of reduction) ([1]; Palmitoleyl, 10 μM, HeLa cells): 28%
percentage of gene editing, GFP fluorescence intensity decrease (% of reduction) ([1]; Palmitoleyl, 15 μM, Hela cells): 17%
percentage of gene editing, GFP fluorescence intensity decrease (% of reduction) ([1]; Petroselinyl, 5 μM, HeLa cells): 46%
percentage of gene editing, GFP fluorescence intensity decrease (% of reduction) ([1]; Petroselinyl, 10 μM, Hela cells): 14%
mean luminescent intensity (RLuc pDNA) (Hek293 cells; Myristoleyl, 5 μM): 330418 RLU
mean luminescent intensity (RLuc pDNA) (Hek293 cells; Myristoleyl, 10 μM): 145597 RLU
mean luminescent intensity (RLuc pDNA) (Hek293 cells; Myristoleyl, 15 μM): 36468 RLU
mean luminescent intensity (RLuc pDNA) (Hek293 cells; Palmitoleyl, 5 μM): 294438 RLU
mean luminescent intensity (RLuc pDNA) (Hek293 cells; Palmitoleyl, 10 μM): 191190 RLU
mean luminescent intensity (RLuc pDNA) (Hek293 cells; Palmitoleyl, 15 μM): 87323 RLU
mean luminescent intensity (RLuc pDNA) (Hek293 cells; Petroselinyl, 5 μM): 286371 RLU
mean luminescent intensity (RLuc pDNA) (Hek293 cells; Petroselinyl, 10 μM): 237379 RLU
mean luminescent intensity (RLuc pDNA) (Hek293 cells; Petroselinyl, 15 μM): 157061 RLU
